Measured values published in patent US20250270513A1, “METHOD FOR PRODUCING CULTURED TISSUE, AND PREPARATION FOR EXTERNAL APPLICATION” (National University Corporation Ehime University, priority 2019, published 2025).

Tests used:
[1] = tested on: fibroblasts of the dermal tissue layer of three-dimensional cultured skin; test: Cell proportion per cell cycle by flow cytometry (FCM), PI staining (Test Example 1); type: cell-based, human
Description: • (5) Of the obtained three-dimensional cultured skin, a dermal tissue layer composed of fibroblasts was separated and DNA-stained with propidium iodide (PI). Next, the proportion of fibroblasts for each cell cycle was analyzed by FCM using Cycle TEST PLUS DNA Reagent Kit (manufactured by BD).

[2] = tested on: EREG, ARG2, CCL2, IL1RN, PGF, SPP1, VEGFA, AREG and DPT mRNA; test: qPCR of genes in monolayer fibroblasts, 24 hours (Test Example 3-3); type: cell-based, human; settings: 100 mg/mL trehalose (Treha 100)
Description: In the same manner as in Test Example 3-2, NHDF was cultured in 1% FCS and 1% ABAM-containing DMEM medium containing 0, 30, or 100 mg/mL trehalose or hyaluronic acid oligosaccharide 4mer (HA4) (product code 11006, manufactured by Cosmo Bio Co., Ltd.) for 24 hours, and RNA was recovered from the cells. Also, as a control, RNA was recovered from fibroblasts before treatment (0 h in FIG. 9). The obtained sample was subjected to the same operation as in Test Example 3-2, and qPCR for genes EREG, ARG2, CCL2, IL1RN, PGF, SPP1, VEGFA, AREG and DPT was performed. GAPDH was used as a reference gene.

[3] = tested on: human normal skin keratinocytes on collagen gel containing pretreated NHDF; test: Three-dimensional cultured skin using fibroblasts pretreated with trehalose (Test Example 4); type: cell-based
Description: • (1) NHDF was seeded on a cell culture dish containing 10% FCS and 1% ABAM-containing DMEM medium at a cell density of 4.0×10^4 cells/cm^2. After 24 hours from seeding, at a cell density of 4.5×10^4 cells/cm^2, the medium was replaced with 1% FCS and 1% ABAM-containing DMEM medium containing 0, 30, or 100 mg/mL trehalose, and the cells were incubated at 37° C. for 24 hours. Then, a collagen gel containing 5.0×10^5 cells/ml of the obtained NHDF was prepared under the same conditions as in Test Example 1 except that trehalose was not added. • (2) According to the method of Test Example 1, the obtained NHDF-containing collagen gel was pre-cultured for 5 days, and then human normal skin keratinocytes were seeded and cultured for 2 days at 37° C. • (3) Further, according to the method of Test Example 1, gas-liquid interface culture was performed at 37° C. for 7 days using CM medium.

[4] = tested on: EREG, ARG2, CCL2, IL1RN, PGF, SPP1, VEGFA, DPT and FGF2 mRNA; test: qPCR of genes in fibroblasts in collagen gel, 3 days (Test Example 3-4); type: cell-based, human; settings: 100 mg/mL trehalose (Treha 100)
Description: A collagen gel containing NHDF was prepared according to the method (1) of Test Example 1. The obtained collagen gel was cultured in DMEM medium containing 0 or 100 mg/mL trehalose, 1% FCS and 1% ABAM for 3 days, and RNA was recovered from the cells. The obtained sample was subjected to the same operation as in Test Example 3-2, and qPCR for genes EREG, ARG2, CCL2, IL1RN, PGF, SPP1, VEGFA, DPT and FGF2 was performed. GAPDH was used as a reference gene.

[5] = tested on: keratinocytes on layered dermal cell structure containing fibroblasts; test: Large scale three-dimensional cultured tissue, confluent keratinocyte sheet, gas-liquid interface culture (Test Example 2); type: cell-based, human; settings: 100 mg/mL trehalose in dermal cell structure; confluent keratinocyte sheet of about 1 cm; 75 mm insert; 5 days
Description: • (1) A layered dermal cell structure containing trehalose at a final concentration of 0 or 100 mg/mL was prepared according to the method (1) of Test Example above except that 10 mL of the gel solution I was added to a cell culture insert with a diameter of 75 mm, and 32 mL of the gel solution containing fibroblasts at the same cell density as in (1) was layered. • (2) A ring with a diameter of 1 cm was placed on the obtained collagen gel, and keratinocytes were seeded inside the ring and cultured in MCDB Type-II-EGM (1:1) medium for 2 days. As a result, a sheet of keratinocytes (epithelial cell layer) with a diameter of about 1 cm is formed on the collagen gel. • (3) When the keratinocytes became confluent, the ring was removed and the medium was replaced with CM medium, and gas-liquid interface culture was performed for 5 days in the same manner as in the method (3) of Test Example 1.

[6] = tested on: NHDF (normal human skin fibroblasts); test: Monolayer culture of fibroblasts, optical microscope observation (Test Example 3-1); type: cell-based; settings: 24 hours monolayer
[7] = Trehalose concentration 100 mg/mL, n = 2, averages

OC[C@H]1O[C@H](O[C@H]2O[C@H](CO)[C@@H](O)[C@H](O)[C@H]2O)[C@H](O)[C@@H](O)[C@@H]1O [trehalose, α, α-trehalose]
proportions of fibroblasts in S phase and G2 phase ([1]; 100 mg/mL vs 0 mg/mL trehalose): significantly increased
Proportion of cells in cell cycle, G1 [1, 7]: 62.5%
Proportion of cells in cell cycle, G2 [1, 7]: 14.0%
Proportion of cells in cell cycle, S [1, 7]: 15.3%
mRNA expression levels of genes EREG, ARG2, CCL2, IL1RN, PGF, SPP1, VEGFA, AREG and DPT compared to vehicle [2]: remarkably increased
contraction of the collagen gel ([3]; fibroblast cells pre-cultured with trehalose): not observed
enlargement of three-dimensional cultured skin in diameter compared to pre-culturing with medium containing no trehalose ([3]; fibroblasts pre-cultured with 30 mg/mL trehalose for 24 hours before collagen gel preparation): about 1.4 times
area of three-dimensional cultured skin ([3]; fibroblasts pre-cultured with 100 mg/mL trehalose for 24 hours before collagen gel preparation): enlarged to cover the entire cell culture insert
mRNA expression levels of genes EREG, ARG2, CCL2, ILIRN, PGF, SPP1, VEGFA, DPT and FGF2 compared to vehicle [4]: significantly increased
expansion of the epithelial tissue layer during gas-liquid interface culture [5]: expanded to the outer edge of the culture insert
increase in the number of cells ([6]; 10 mg/mL trehalose): slightly suppressed
appearance of damage to cells ([6]; 100 mg/mL trehalose): no appearance of any damage
cell morphology ([6]; 100 mg/mL trehalose): the number of spindle-shaped cells was large
increase in the number of cells ([6]; 100 mg/mL trehalose): further suppressed
